The source of these data is patent US4431665A, “Acylated laidlomycin derivatives” (priority 1980, dated 1984).

For experiment [1], the system named is rumen contents (lactic acid accumulation). Put plainly: Inhibition of lactic acid accumulation, second batch culture fermentation of rumen contents with glucose. In kind it is cell-based, bovine (rumen fistulated). The settings on record: 6 h, 6 h, 39° C.; for Lactic Acid Accumulation (μ mol/ml): Table 8, 0 μg/ml: 40.47; for Lactic Acid Accumulation: Table 6, 0 μg/ml: 36.65. On the procedure: Inhibition of lactic acid accumulation is determined using a second batch culture fermentation system. Rumen contents from a rumen fistulated bovine are mixed with an equal amount of buffer which contains a 150 mM concentration of glucose. Following 6 hours of incubation at 39° C., lactic acid produced in the fermentation is analyzed by a specific enzymatic assay. The concentration of lactic acid in the fermentation broth is quantified by the increase in absorbance of light at […] when nicotinamide adenine dinucleotide is reduced by lactic acid with the aid of lactate dehydrogenase. […]
(§1) The procedure of Example 2 was followed to compare laidlomycin (L.), sodium L. (Na L.), L.-propionate (L.C3), L. butyrate (L.C4), L. isobutyrate (L. isoC4), L. pentanoate (L.C5) and L. hexanoate (L.C6).
(§2) The procedure of Example 2 was followed to compare the activities of L. heptanoate (L. C7), L. octanoate (L. C8), L. decanoate (L. C10) and L. dodecanoate (L. C12) in increasing propionic acid production and inhibiting lactic acid production.
(§3) The procedure of Example 2 was followed to compare the activities of laidlomycin (L.) acetate (L. C2), L. pentanoate (L. C5), L. stearate (L. C18), L. cyclobutylcarboxylate, L. cyclopentylcarboxylate, L. cyclohexylcarboxylate and L. cyclopropylcarboxylate.

The test system of experiment [2] is rumen microorganisms (mixed microbial population of rumen contents). Put plainly: Enhancement of intraruminal propionic acid production, batch culture fermentation of rumen contents. The class given is cell-based, bovine (rumen-fistulated). To be noted: 9 h, 39° C. On the procedure: Enhancement of intraruminal propionic acid production is determined using a batch culture fermentation system. Rumen contents from a rumen-fistulated bovine are mixed with an equal amount of buffer which contains mineral, energy and nitrogen sources required for continued growth and metabolism of the mixed microbial population. Aliquots of this inoculum then are transferred to incubation vessels containing appropriate amounts of sodium laidlomycin (Na L.) (see Example 1A), and L. butyrate (L.C4) (prepared according to the procedure of Example 1A). After 9 hours of incubation at 39° C., concentrations of individual volatile fatty acids in each incubation vessel are determined by gas-liquid chromatography. The net production of each individual volatile fatty acid (acetic [AA], propionic [PA] and butyric [BA]) is calculated as the difference between the concentration after incubation and the concentration before incubation. The molar percentage of propionic acid produced is calculated from the following equation: [formula]
The comparative activities of sodium laidlomycin (Na L.) and the laidlomycin butyrate upon propionic acid and lactic acid production are set forth in Tables 1 and 2 where the concentration is in micrograms per ml (μg/ml).
as §1, §2, §3

[3] abbreviates: Table 7, 1.25 μg/ml, 0 μg/ml: 36.1.
Setting [4] is: Table 7, 2.5 μg/ml, 0 μg/ml: 36.1.
Setting [5] is: Table 7, 5 μg/ml, 0 μg/ml: 36.1.
Setting [6] is: Table 7, 10 μg/ml, 0 μg/ml: 36.1.
The mark [7] stands for this setting: Table 7, 20 μg/ml, 0 μg/ml: 36.1.
[8] abbreviates: Table 7, .313 μg/ml, 0 μg/ml: 36.1.
[9] abbreviates: Table 7, .625 μg/ml, 0 μg/ml: 36.1.
Where [10] appears, read: Table 5, 1.25 μg/ml, 0 μg/ml: 35.5.
[11] abbreviates: Table 5, 2.5 μg/ml, 0 μg/ml: 35.5.
The mark [12] stands for this setting: Table 5, 5 μg/ml, 0 μg/ml: 35.5.
Where [13] appears, read: Table 5, 10 μg/ml, 0 μg/ml: 35.5.
The mark [14] stands for this setting: Table 5, 20 μg/ml, 0 μg/ml: 35.5.
[15] abbreviates: Table 5, .31 μg/ml, 0 μg/ml: 35.5.
Setting [16] is: Table 5, .63 μg/ml, 0 μg/ml: 35.5.

In the case of `CCCCC(=O)OCC1(O)OC(C2CC(C)C(C3(C)CCC(C4(C)CCC5(CC(O)C(C)C(C(C)C(OC(=O)CC)C(C)C(=O)O)O5)O4)O3)O2)C(C)CC1C` (centres unmarked) [L. C5, laidlomycin pentanoate], the activity at 1.25 µg/mL in experiment [1] (Bos taurus, read-out: Accumulation of Lactic Acid - % of Control, Table 4, 1.25 μg/ml) came out at 54%. Besides, in experiment [1] (Bos taurus, read-out: Accumulation of Lactic Acid - % of Control, Table 4, 5 μg/ml), the activity at 5 µg/mL was 13%. Moreover, the activity at 20 µg/mL in experiment [1] (Bos taurus, read-out: Accumulation of Lactic Acid - % of Control, Table 4, 20 μg/ml) was 11%. In experiment [1] (Bos taurus, read-out: Accumulation of Lactic Acid - % of Control, Table 4, .31 μg/ml), the activity at 0.31 µg/mL is 109%. The “Lactic Acid Accumulation (μ mol/ml)” value in experiment [1] (1.25 μg/ml) amounted to 4.67 μ mol/ml; in experiment [1] (2.5 μg/ml), 3.75 μ mol/ml; in experiment [1] (5 μg/ml), 4.04 μ mol/ml; in experiment [1] (10 μg/ml), 4.63 μ mol/ml; in experiment [1] (20 μg/ml) it was 5.13 μ mol/ml; in experiment [1] (.313 μg/ml), 24.62 μ mol/ml. For the same molecule, in experiment [1] (.625 μg/ml), the “Lactic Acid Accumulation (μ mol/ml)” value is listed as 11.91 μ mol/ml. Moreover, the “% Propionic Acid” value in experiment [2] (Table 3, 1.25 μg/ml, 0 μg/ml: 28.5) was 33.9%; in experiment [2] (Table 3, 5 μg/ml, 0 μg/ml: 28.5), 36.1%; in experiment [2] (Table 3, 20 μg/ml, 0 μg/ml: 28.5), 39.7%; in experiment [2] (Table 3, .31 μg/ml, 0 μg/ml: 28.5), 30.6%; in experiment [2] (setting [3]), 48.7%; in experiment [2] (setting [4]), 50.9%. In addition, the “% Propionic Acid” value in experiment [2] (setting [5]) is reported as 49.9%; in experiment [2] (setting [6]), 51.6%; in experiment [2] (setting [7]) it was 51.1%; in experiment [2] (setting [8]), 45.9%; in experiment [2] (setting [9]), 48.1%.
As for `CCC(=O)OC(C(C)C(=O)O)C(C)C1OC2(CCC(C)(C3CCC(C)(C4OC(C5OC(O)(COC(C)=O)C(C)CC5C)CC4C)O3)O2)CC(O)C1C` (centres unmarked) [L. C2], the “Lactic Acid Accumulation (μ mol/ml)” value in experiment [1] (1.25 μg/ml) was determined as 6.89 μ mol/ml; in experiment [1] (2.5 μg/ml) it was 4.34 μ mol/ml; in experiment [1] (5 μg/ml) it was 4.35 μ mol/ml; in experiment [1] (10 μg/ml), 4.35 μ mol/ml; in experiment [1] (20 μg/ml), 5.28 μ mol/ml; in experiment [1] (.313 μg/ml), 41.19 μ mol/ml. For the same molecule, the “Lactic Acid Accumulation (μ mol/ml)” value in experiment [1] (.625 μg/ml) came to 22.23 μ mol/ml. Also, the “% Propionic Acid” value in experiment [2] (setting [3]) is 50.7%; in experiment [2] (setting [4]), 50.4%; in experiment [2] (setting [5]) it was 52.2%; in experiment [2] (setting [6]), 51.2%; in experiment [2] (setting [7]), 53.0%; in experiment [2] (setting [8]) it was 42.8%. Further, the “% Propionic Acid” value in experiment [2] (setting [9]) came to 47.1%.
For `CCC(=O)OC(C(C)C(=O)O)C(C)C1OC2(CCC(C)(C3CCC(C)(C4OC(C5OC(O)(COC(=O)C6CCCC6)C(C)CC5C)CC4C)O3)O2)CC(O)C1C` (centres unmarked) [Cyclopentylcarboxylate, laidlomycin cyclopentylcarboxylate], the “Lactic Acid Accumulation (μ mol/ml)” value in experiment [1] (1.25 μg/ml) worked out at 3.63 μ mol/ml; in experiment [1] (2.5 μg/ml) it was 3.73 μ mol/ml; in experiment [1] (5 μg/ml) it was 4.08 μ mol/ml; in experiment [1] (10 μg/ml) it was 4.53 μ mol/ml; in experiment [1] (20 μg/ml) it was 9.66 μ mol/ml; in experiment [1] (.313 μg/ml), 24.75 μ mol/ml. Moreover, in experiment [1] (.625 μg/ml), the “Lactic Acid Accumulation (μ mol/ml)” value is 6.79 μ mol/ml. For the same molecule, the “% Propionic Acid” value came to 51.9% in experiment [2] (setting [3]); 50.3% in experiment [2] (setting [4]); 51.1% in experiment [2] (setting [5]); 51.6% in experiment [2] (setting [6]); 50.0% in experiment [2] (setting [7]); 47.1% in experiment [2] (setting [8]). The “% Propionic Acid” value in experiment [2] (setting [9]) is on record as 47.9%.
Regarding `CCCCCCCCCC(=O)OCC1(O)OC(C2CC(C)C(C3(C)CCC(C4(C)CCC5(CC(O)C(C)C(C(C)C(OC(=O)CC)C(C)C(=O)O)O5)O4)O3)O2)C(C)CC1C` (centres unmarked) [L. C10, laidlomycin decanoate], the “Lactic Acid Accumulation” value turned out to be 0.84 µmol/mL in experiment [1] (1.25 μg/ml); 1.20 µmol/mL in experiment [1] (2.5 μg/ml); 0.94 µmol/mL in experiment [1] (5 μg/ml); 0.94 µmol/mL in experiment [1] (10 μg/ml); 0.96 µmol/mL in experiment [1] (20 μg/ml); 36.86 µmol/mL in experiment [1] (.31 μg/ml). In experiment [1] (.63 μg/ml), the “Lactic Acid Accumulation” value stood at 30.78 µmol/mL. The “% Propionic Acid” value in experiment [2] (setting [10]) turned out to be 45.5%; in experiment [2] (setting [11]), 47.1%; in experiment [2] (setting [12]), 46.7%; in experiment [2] (setting [13]), 46.6%; in experiment [2] (setting [14]), 48.1%; in experiment [2] (setting [15]) it was 39.9%. Moreover, the “% Propionic Acid” value in experiment [2] (setting [16]) is 43.6%.
With `CCCCCCCCCCCC(=O)OCC1(O)OC(C2CC(C)C(C3(C)CCC(C4(C)CCC5(CC(O)C(C)C(C(C)C(OC(=O)CC)C(C)C(=O)O)O5)O4)O3)O2)C(C)CC1C` (centres unmarked) [L. C12, laidlomycin dodecanoate], the “Lactic Acid Accumulation” value in experiment [1] (1.25 μg/ml) came to 11.19 µmol/mL; in experiment [1] (2.5 μg/ml) it was 1.04 µmol/mL; in experiment [1] (5 μg/ml), 3.32 µmol/mL; in experiment [1] (10 μg/ml), 2.16 µmol/mL; in experiment [1] (20 μg/ml), 1.65 µmol/mL; in experiment [1] (.31 μg/ml) it was 34.90 µmol/mL. Besides, in experiment [1] (.63 μg/ml), the “Lactic Acid Accumulation” value is 38.01 µmol/mL. In addition, the “% Propionic Acid” value in experiment [2] (setting [10]) was found to be 45.3%; in experiment [2] (setting [11]), 46.1%; in experiment [2] (setting [12]) it was 46.8%; in experiment [2] (setting [13]) it was 47.7%; in experiment [2] (setting [14]), 48.0%; in experiment [2] (setting [15]), 42.0%. Besides, in experiment [2] (setting [16]), the “% Propionic Acid” value is recorded as 43.8%.
With `CCC(=O)OC(C(C)C(=O)O)C(C)C1OC2(CCC(C)(C3CCC(C)(C4OC(C5OC(O)(COC(=O)C6CC6)C(C)CC5C)CC4C)O3)O2)CC(O)C1C` (centres unmarked) [Cyclopropylcarboxylate, laidlomycin cyclopropylcarboxylate], the “Lactic Acid Accumulation (μ mol/ml)” value is given as 2.50 μ mol/ml in experiment [1] (1.25 μg/ml); 3.16 μ mol/ml in experiment [1] (2.5 μg/ml); 3.17 μ mol/ml in experiment [1] (5 μg/ml); 3.53 μ mol/ml in experiment [1] (10 μg/ml); 3.96 μ mol/ml in experiment [1] (20 μg/ml); 15.54 μ mol/ml in experiment [1] (.313 μg/ml). Moreover, the “Lactic Acid Accumulation (μ mol/ml)” value in experiment [1] (.625 μg/ml) is given as 2.12 μ mol/ml. For the same molecule, the “% Propionic Acid” value is listed as 49.7% in experiment [2] (setting [3]); 49.3% in experiment [2] (setting [4]); 50.9% in experiment [2] (setting [5]); 49.6% in experiment [2] (setting [6]); 50.7% in experiment [2] (setting [7]); 47.7% in experiment [2] (setting [8]). Further, the “% Propionic Acid” value in experiment [2] (setting [9]) is listed as 46.4%.
